Patent publication US6548053B1, “Control of intra-ocular pressure” (The University of Birmingham, priority 1999, dated 2003)

Legend:
Format in all cases: in vivo, human
11β-HSD = experiment: Clinical study: urinary free cortisol and GC/MS urinary steroid ratios confirming inhibition of 11β-HSD
Description: A clinical study was undertaken to assess the functional significance of 11β-HSD within the eye by oral administration of carbenoxolone, a known inhibitor of both 11β-HSD1 and 11β-HSD2. The study was undertaken on eight healthy male volunteers who were not on any systemic or topical medications and had no family history of glaucoma. Baseline intra-ocular pressure readings were measured using the same Goldmann applanation tonometer at 08:00, 12:00, 16:00 and 20:00 hours on two consecutive days. Systolic and diastolic blood pressures were also measured at each time point. Venous blood was analysed for serum electrolytes on day one and urine was collected for 24-hour urinary free cortisol and GC/MS for cortisol/cortisone ratios. The subjects then commenced a course of 100 mg carbenoxolone taken orally three times a day for seven consecutive days. The IOP measurements and blood pressure recordings were repeated at each time point on the third and seventh day of carbenoxolone ingestion (i.e. days five and nine of the study). Urea and electrolytes were also measured on these days and inhibition of 11β-HSD was confirmed by comparing the original urinary F/E ratio with that from urine aliquoted from a further 24-hour collection performed between days six and seven of ingestion. […] In addition, there was a significant decrease in the tetrahydrocortisol (THF)+allo-THF/tetrahydrocortisone (THE) ratio (pre-THF+allo-THF/THE=0.92±0.23, per-THF+allo-THF/THE=0.7±0.19, p=0.0012). This reflects the relative 11β-HSD1/HSD2 activities predominantly in the liver.

[1] = Clinical study: systolic and diastolic blood pressure and serum electrolytes; conditions: throughout the study, 100 mg orally three times a day for seven days
Description: (§1) A clinical study was undertaken to assess the functional significance of 11β-HSD within the eye by oral administration of carbenoxolone, a known inhibitor of both 11β-HSD1 and 11β-HSD2. The study was undertaken on eight healthy male volunteers who were not on any systemic or topical medications and had no family history of glaucoma. Baseline intra-ocular pressure readings were measured using the same Goldmann applanation tonometer at 08:00, 12:00, 16:00 and 20:00 hours on two consecutive days. Systolic and diastolic blood pressures were also measured at each time point. Venous blood was analysed for serum electrolytes on day one and urine was collected for 24-hour urinary free cortisol and GC/MS for cortisol/cortisone ratios. The subjects then commenced a course of 100 mg carbenoxolone taken orally three times a day for seven consecutive days. The IOP measurements and blood pressure recordings were repeated at each time point on the third and seventh day of carbenoxolone ingestion (i.e. days five and nine of the study). Urea and electrolytes were also measured on these days and inhibition of 11β-HSD was confirmed by comparing the original urinary F/E ratio with that from urine aliquoted from a further 24-hour collection performed between days six and seven of ingestion.
There was no difference between each eye of each subject. […]

healthy male volunteers = experiment: Clinical study: intra-ocular pressure (Goldmann applanation tonometer) under oral carbenoxolone; conditions: for reduction in IOP during the day (08:00 to 20:00 hrs): baseline reduction 0.38±1.16; for reduction in IOP during the day (08:00 to 20:00 hrs), percent: baseline 2.51%; for IOP of one subject vs days 1 and 2 (FIG. 3): both eyes
Description: as §1, with “ingestion. […] There was no difference between each eye of each subject. The IOP was lower on day seven of ingestion (11.50±2.08) than on day three (12.48±1.48) compared with the mean baseline values (p<0.0001 for both days), the difference between days three and seven being significant (p<0.001). There was also a small reduction in intra-ocular pressure during the course of the day, i.e. from 08:00 hrs to 20:00 hrs (baseline reduction of0.38±1.16 (2.51%), p=0.076).” for “ingestion.”

CC1(C)[C@@H](OC(=O)CCC(=O)O)CC[C@]2(C)[C@H]3C(=O)C=C4[C@@H]5C[C@@](C)(C(=O)O)CC[C@]5(C)CC[C@@]4(C)[C@]3(C)CC[C@@H]12 [carbenoxolone]
24-hour urinary free cortisol (11β-HSD; 24-hour urine between days six and seven of ingestion vs baseline): no significant change
per-F/E (urinary cortisol/cortisone ratio by GC/MS) (11β-HSD; 24-hour urine between days six and seven of ingestion, pre-F/E 0.497±0.189, p=0.004): 1.144±0.382
per-THF+allo-THF/THE ratio (11β-HSD; urine on ingestion, pre value 0.92±0.23, p=0.0012): 0.7±0.19
serum electrolytes [1]: remained stable
systolic and diastolic blood pressures [1]: remained stable
reduction in IOP during the day (08:00 to 20:00 hrs) (healthy male volunteers; day seven of ingestion, p=0.0006): 2.25±1.91
reduction in IOP during the day (08:00 to 20:00 hrs), percent (healthy male volunteers; day seven of ingestion): 17.31%
reduction in IOP during the day (08:00 to 20:00 hrs) (healthy male volunteers; day three of ingestion, p=0.0058): 0.86±0.83
reduction in IOP during the day (08:00 to 20:00 hrs), percent (healthy male volunteers; day three of ingestion): 6.51%
per-IOP (mean IOP on ingesting carbenoxolone) (healthy male volunteers; eight subjects, 100 mg orally three times a day, pre-IOP 14.7±1.39): 12.00±1.87
IOP on day seven of ingestion (healthy male volunteers; eight subjects, day seven of ingestion (study day 9), p<0.0001 vs mean baseline): 11.50±2.08
IOP on day three of ingestion (healthy male volunteers; eight subjects, day three of ingestion (study day 5), p<0.0001 vs mean baseline): 12.48±1.48
subjects showing a decrease in IOP (healthy male volunteers; eight subjects, drop significant in seven individuals (<0.01)): All eight subjects showed a decrease in IOP
overall reduction in IOP (healthy male volunteers; mean of eight subjects, 100 mg orally three times a day for seven days, vs pre-IOP 14.7±1.39, p<0.000001): 18.2%
IOP of one subject vs days 1 and 2 (FIG. 3) (healthy male volunteers; day 5 (third day of ingestion)): generally lower
IOP of one subject vs days 1 and 2 (FIG. 3) (healthy male volunteers; day 9 (seventh day of ingestion)): even lower
